Laboratory results published in PubChem BioAssay (NCI).
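These data come from cells grown in 96-well plates and exposed to compound for 48 hours at five concentrations. At the TGI there is no net growth.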

How the values were obtained:
Assay in all cases: NCI-60 cell line screen, 48 h
786-0 renal = system: 786-0 renal
A498 renal = system: A498 renal
A549 NSCLC = system: A549 NSCLC
ACHN renal = system: ACHN renal
BT-549 breast = system: BT-549 breast
CAKI-1 renal = system: CAKI-1 renal
CCRF-CEM leukemia = system: CCRF-CEM leukemia
COLO 205 colon = system: COLO 205 colon
DU-145 prostate = system: DU-145 prostate
EKVX NSCLC = system: EKVX NSCLC
HCC-2998 colon = system: HCC-2998 colon
HCT-116 colon = system: HCT-116 colon
HCT-15 colon = system: HCT-15 colon
HL-60(TB) leukemia = system: HL-60(TB) leukemia
HOP-62 NSCLC = system: HOP-62 NSCLC
HOP-92 NSCLC = system: HOP-92 NSCLC
HS 578T breast = system: HS 578T breast
HT29 colon = system: HT29 colon
IGROV1 ovarian = system: IGROV1 ovarian
K-562 leukemia = system: K-562 leukemia
KM12 colon = system: KM12 colon
LOX IMVI melanoma = system: LOX IMVI melanoma
M14 melanoma = system: M14 melanoma
MALME-3M melanoma = system: MALME-3M melanoma
MCF7 breast = system: MCF7 breast
MDA-MB-231 breast = system: MDA-MB-231 breast
MDA-MB-435 = system: MDA-MB-435
MDA-N = system: MDA-N
MOLT-4 leukemia = system: MOLT-4 leukemia
NCI-H226 lung = system: NCI-H226 lung
NCI-H23 lung = system: NCI-H23 lung
NCI-H460 lung = system: NCI-H460 lung
NCI-H522 lung = system: NCI-H522 lung
NCI/ADR-RES ovarian = system: NCI/ADR-RES ovarian
OVCAR-3 ovarian = system: OVCAR-3 ovarian
OVCAR-4 ovarian = system: OVCAR-4 ovarian
OVCAR-5 ovarian = system: OVCAR-5 ovarian
OVCAR-8 ovarian = system: OVCAR-8 ovarian
PC-3 prostate = system: PC-3 prostate
RPMI-8226 leukemia = system: RPMI-8226 leukemia
RXF 393 renal = system: RXF 393 renal
SF-268 CNS = system: SF-268 CNS
SF-295 CNS = system: SF-295 CNS
SF-539 CNS = system: SF-539 CNS
SK-MEL-2 melanoma = system: SK-MEL-2 melanoma
SK-MEL-28 melanoma = system: SK-MEL-28 melanoma
SK-MEL-5 melanoma = system: SK-MEL-5 melanoma
SK-OV-3 ovarian = system: SK-OV-3 ovarian
SN12C renal = system: SN12C renal
SNB-19 CNS = system: SNB-19 CNS
SNB-75 CNS = system: SNB-75 CNS
SR leukemia = system: SR leukemia
SW-620 colon = system: SW-620 colon
T-47D breast = system: T-47D breast
TK-10 renal = system: TK-10 renal
U251 CNS = system: U251 CNS
UACC-257 melanoma = system: UACC-257 melanoma
UACC-62 melanoma = system: UACC-62 melanoma
UO-31 renal = system: UO-31 renal

CC(=O)C(C(c1ccccc1)N1CCOCC1)N1CCOCC1 (stereo not drawn)
TGI (786-0 renal): > 100 µM | TGI (A498 renal): > 100 µM | TGI (A549 NSCLC): > 100 µM | TGI (ACHN renal): > 100 µM | TGI (BT-549 breast): > 100 µM | TGI (CAKI-1 renal): > 100 µM | TGI (CCRF-CEM leukemia): > 100 µM | TGI (COLO 205 colon): > 100 µM | TGI (DU-145 prostate): > 100 µM | TGI (EKVX NSCLC): > 100 µM | TGI (HCC-2998 colon): 35.8 µM | TGI (HCT-116 colon): > 100 µM | TGI (HCT-15 colon): > 100 µM | TGI (HL-60(TB) leukemia): > 100 µM | TGI (HOP-62 NSCLC): > 100 µM | TGI (HOP-92 NSCLC): > 100 µM | TGI (HS 578T breast): > 100 µM | TGI (HT29 colon): > 100 µM | TGI (IGROV1 ovarian): > 100 µM | TGI (K-562 leukemia): > 100 µM | TGI (KM12 colon): > 100 µM | TGI (LOX IMVI melanoma): > 100 µM | TGI (M14 melanoma): > 100 µM | TGI (MALME-3M melanoma): > 100 µM | TGI (MCF7 breast): > 100 µM | TGI (MDA-MB-231 breast): > 100 µM | TGI (MDA-MB-435): > 100 µM | TGI (MDA-N): > 100 µM | TGI (MOLT-4 leukemia): > 100 µM | TGI (NCI-H226 lung): > 100 µM | TGI (NCI-H23 lung): > 100 µM | TGI (NCI-H460 lung): 36.3 µM | TGI (NCI-H522 lung): > 100 µM | TGI (NCI/ADR-RES ovarian): > 100 µM | TGI (OVCAR-3 ovarian): > 100 µM | TGI (OVCAR-4 ovarian): > 100 µM | TGI (OVCAR-5 ovarian): > 100 µM | TGI (OVCAR-8 ovarian): > 100 µM | TGI (PC-3 prostate): > 100 µM | TGI (RPMI-8226 leukemia): > 100 µM | TGI (RXF 393 renal): > 100 µM | TGI (SF-268 CNS): > 100 µM | TGI (SF-295 CNS): > 100 µM | TGI (SF-539 CNS): > 100 µM | TGI (SK-MEL-2 melanoma): > 100 µM | TGI (SK-MEL-28 melanoma): > 100 µM | TGI (SK-MEL-5 melanoma): > 100 µM | TGI (SK-OV-3 ovarian): > 100 µM | TGI (SN12C renal): > 100 µM | TGI (SNB-19 CNS): > 100 µM | TGI (SNB-75 CNS): > 100 µM | TGI (SR leukemia): > 100 µM | TGI (SW-620 colon): > 100 µM | TGI (T-47D breast): > 100 µM | TGI (TK-10 renal): 53.7 µM | TGI (U251 CNS): > 100 µM | TGI (UACC-257 melanoma): 38.9 µM | TGI (UACC-62 melanoma): > 100 µM | TGI (UO-31 renal): > 100 µM

Cc1ccc(C(=O)N/N=C(\N=Nc2cccc([N+](=O)[O-])c2)c2ccc(N(CCC#N)CCC#N)cc2C)cc1
TGI (786-0 renal): > 100 µM | TGI (A498 renal): > 81.6 µM | TGI (A549 NSCLC): > 100 µM | TGI (ACHN renal): > 100 µM | TGI (BT-549 breast): > 78.5 µM | TGI (CAKI-1 renal): > 100 µM | TGI (CCRF-CEM leukemia): > 69.2 µM | TGI (COLO 205 colon): 20.9 µM | TGI (DU-145 prostate): > 100 µM | TGI (EKVX NSCLC): > 69.4 µM | TGI (HCC-2998 colon): > 100 µM | TGI (HCT-116 colon): > 74.8 µM | TGI (HCT-15 colon): > 100 µM | TGI (HL-60(TB) leukemia): > 43 µM | TGI (HOP-62 NSCLC): 79.7 µM | TGI (HOP-92 NSCLC): > 100 µM | TGI (HS 578T breast): > 88.3 µM | TGI (HT29 colon): > 100 µM | TGI (IGROV1 ovarian): > 100 µM | TGI (K-562 leukemia): > 100 µM | TGI (KM12 colon): 61.6 µM | TGI (LOX IMVI melanoma): > 100 µM | TGI (M14 melanoma): > 67.6 µM | TGI (MALME-3M melanoma): 18.4 µM | TGI (MCF7 breast): > 68.1 µM | TGI (MDA-MB-231 breast): > 79.2 µM | TGI (MDA-MB-435): 54.3 µM | TGI (MDA-N): > 78.4 µM | TGI (MOLT-4 leukemia): > 82.6 µM | TGI (NCI-H226 lung): > 26.2 µM | TGI (NCI-H23 lung): > 82.8 µM | TGI (NCI-H460 lung): > 100 µM | TGI (NCI-H522 lung): > 100 µM | TGI (NCI/ADR-RES ovarian): > 95.4 µM | TGI (OVCAR-3 ovarian): 6.71 µM | TGI (OVCAR-4 ovarian): > 100 µM | TGI (OVCAR-5 ovarian): > 100 µM | TGI (OVCAR-8 ovarian): > 91.6 µM | TGI (PC-3 prostate): > 100 µM | TGI (RPMI-8226 leukemia): > 100 µM | TGI (RXF 393 renal): 60.7 µM | TGI (SF-268 CNS): > 100 µM | TGI (SF-295 CNS): > 92 µM | TGI (SF-539 CNS): 58.7 µM | TGI (SK-MEL-2 melanoma): > 77.3 µM | TGI (SK-MEL-28 melanoma): > 86.3 µM | TGI (SK-MEL-5 melanoma): 28.6 µM | TGI (SK-OV-3 ovarian): > 85.2 µM | TGI (SN12C renal): > 100 µM | TGI (SNB-19 CNS): > 100 µM | TGI (SNB-75 CNS): 74.1 µM | TGI (SR leukemia): > 100 µM | TGI (SW-620 colon): > 100 µM | TGI (T-47D breast): 50.7 µM | TGI (TK-10 renal): > 100 µM | TGI (U251 CNS): > 100 µM | TGI (UACC-257 melanoma): 52.7 µM | TGI (UACC-62 melanoma): > 100 µM | TGI (UO-31 renal): > 100 µM
